Laboratory results published in patent US12624034B2, “Non-covalent modifiers of AKT1 and uses thereof” (Terremoto Biosciences, Inc., priority 2023, dated 2026).

Assays:
[1] = tested on: LAPC4 prostate cancer cells, which express the AKT1 E17K allele; assay: Antiproliferative effects in LAPC4 cells (CellTiter Glo, 72 h); assay type: cell-based; conditions: Homo sapiens, LAPC4, 72 h, read-out: LAPC4 proliferation IC50
Protocol: Antiproliferative Effects in LAPC4 Cells.
LAPC4 prostate cancer cells (Klein, K. A. et al. Nat Med 1997, 3, 402-408), which express the AKT1 E17K allele, were grown in IMDM media (Hyclone) supplemented with 12% FBS+1% P/S. To assess compound effects on growth, 1,000 cells/well were seeded in 384 well assay plates, incubated with compound dilutions dissolved in DMSO. After 72 h, intracellular ATP content was assessed with CellTiter Glo reagent (Promega) according to the manufacturer's instructions. IC50 values were calculated by fitting luminescence values to a log(inhibitor) vs. response Hill equation.

AKT1 WT = target: T1, AKT1 WT (Homo sapiens, UniProt P31749); assay: Live cell AKT1 WT target engagement by NanoBRET competitive probe displacement in HEK293 cells; assay type: binding; conditions: NanoBRET live cell target engagement, HEK293 cells, 2 h at 37° C.; read-out: AKT1 WT IC50
T1 construct: expressed in transfected cells; host or cells: HEK293

AKT2 = target: T2, AKT2 (Homo sapiens, UniProt P31751); assay: Live cell AKT2 target engagement by NanoBRET competitive probe displacement in HEK293 cells; assay type: binding; conditions: NanoBRET live cell target engagement, HEK293 cells, 2 h at 37° C.; read-out: AKT2 IC50
T2 construct: expressed in transfected cells; host or cells: HEK293

AKT1 E17K = target: T3, AKT1 E17K (Homo sapiens, UniProt P31749, E17K); assay: Live cell AKT1 E17K target engagement by NanoBRET competitive probe displacement in HEK293 cells; assay type: binding; conditions: NanoBRET live cell target engagement, HEK293 cells, 2 h at 37° C.
T3 construct: expressed in transfected cells; host or cells: HEK293
Protocol: Determining live cell AKT1 E17K, AKT1 WT, and AKT2 target engagement by NanoBRET competitive probe displacement. Live cell target engagement assays were performed as described (Vasta, J. D. et al. Cell Chem Biol 2018, 25(11), 206-214). Briefly, HEK293 cells were transfected with plasmids encoding kinase-NanoLuciferase fusion proteins overnight. Cells were then treated with serial dilutions of compound and an ˜EC50 concentration of fluorescently-tagged ATP-competitive tracer (Promega). After incubation for 2 h at 37° C., luciferase substrate and extracellular luciferase inhibitor were added to all wells, and luminescent intensity at 460 nm and 600 nm were measured on a multimode plate-reader. The ratio of E600/E460 was calculated to give the tracer engagement signal (BRET). IC50 values were calculated by fitting BRET values to a log(inhibitor) vs. response Hill equation.

T2 sequence (P31751 whole entry): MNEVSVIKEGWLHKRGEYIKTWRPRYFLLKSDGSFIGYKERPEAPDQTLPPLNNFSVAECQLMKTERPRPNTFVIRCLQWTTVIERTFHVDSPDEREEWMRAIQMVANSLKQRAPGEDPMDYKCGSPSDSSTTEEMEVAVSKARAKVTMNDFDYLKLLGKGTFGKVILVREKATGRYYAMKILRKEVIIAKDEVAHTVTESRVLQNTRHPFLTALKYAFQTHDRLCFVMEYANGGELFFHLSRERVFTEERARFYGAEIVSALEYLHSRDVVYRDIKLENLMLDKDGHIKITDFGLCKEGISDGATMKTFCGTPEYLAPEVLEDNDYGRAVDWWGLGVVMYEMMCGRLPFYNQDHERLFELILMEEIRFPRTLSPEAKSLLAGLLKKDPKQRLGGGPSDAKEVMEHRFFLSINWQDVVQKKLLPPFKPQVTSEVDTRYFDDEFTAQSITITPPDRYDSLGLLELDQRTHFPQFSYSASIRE
T3 sequence (P31749 whole entry E17K): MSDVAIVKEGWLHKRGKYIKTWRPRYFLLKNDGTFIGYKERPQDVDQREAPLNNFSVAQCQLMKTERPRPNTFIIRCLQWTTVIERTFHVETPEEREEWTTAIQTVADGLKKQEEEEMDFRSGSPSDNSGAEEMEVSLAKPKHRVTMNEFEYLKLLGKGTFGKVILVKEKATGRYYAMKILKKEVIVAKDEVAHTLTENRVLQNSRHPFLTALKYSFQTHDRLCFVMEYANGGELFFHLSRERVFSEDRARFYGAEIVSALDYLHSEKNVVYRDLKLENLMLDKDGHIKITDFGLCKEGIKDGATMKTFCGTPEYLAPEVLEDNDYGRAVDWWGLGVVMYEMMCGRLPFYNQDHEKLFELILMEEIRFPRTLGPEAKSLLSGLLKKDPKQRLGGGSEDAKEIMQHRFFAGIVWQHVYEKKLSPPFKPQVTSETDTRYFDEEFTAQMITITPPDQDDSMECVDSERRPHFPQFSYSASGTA
T1 sequence (P31749 whole entry): as the sequence (P31749 whole entry E17K) above, with K17E counted along it

`Cc1cncc(C(=O)N[C@H]2CCc3cc(-n4c(-c5cccnc5N)nc5ccc(-n6cccn6)nc54)ccc32)c1` [Compound 30, (S)—N-(5-(2-(2-aminopyridin-3-yl)-5-(1H-pyrazol-1-yl)-3H-imidazo[4,5-b]pyridin-3-yl)-2,3-dihydro-1H-inden-1-yl)-5-methylnicotinamide] was tested, and the IC50 [1] was 721 nM, the IC50 (AKT1 WT) was 10.6 nM and the IC50 (AKT2) was 127 nM. For the same molecule, the IC50 (AKT1 E17K) was 51.1 nM.
For `Cc1ccncc1C(=O)N[C@H]1CCc2cc(-n3c(-c4cccnc4N)nc4ccc(-n5cccn5)nc43)ccc21` [Compound 31, (S)—N-(5-(2-(2-aminopyridin-3-yl)-5-(1H-pyrazol-1-yl)-3H-imidazo[4,5-b]pyridin-3-yl)-2,3-dihydro-1H-inden-1-yl)-4-methylnicotinamide], the IC50 [1] was 7880 nM, the IC50 (AKT1 WT) was 33.9 nM and the IC50 (AKT2) was 470 nM. It also gave an IC50 (AKT1 E17K) of 366 nM.
`Nc1ncccc1-c1nc2ccc(-n3cccn3)nc2n1-c1ccc2c(c1)CC[C@@H]2NC(=O)c1cncc(F)c1` [Compound 32, (S)—N-(5-(2-(2-aminopyridin-3-yl)-5-(1H-pyrazol-1-yl)-3H-imidazo[4,5-b]pyridin-3-yl)-2,3-dihydro-1H-inden-1-yl)-5-fluoronicotinamide] was tested, and the IC50 [1] was 914 nM, the IC50 (AKT1 WT) was 11 nM and the IC50 (AKT2) was 123 nM. For the same molecule, the IC50 (AKT1 E17K) was 49 nM.
In the case of `Nc1ncccc1-c1nc2ccc(-n3cccn3)nc2n1-c1ccc2c(c1)CC[C@@H]2NC(=O)c1ccnnc1` [Compound 33, (S)—N-(5-(2-(2-aminopyridin-3-yl)-5-(1H-pyrazol-1-yl)-3H-imidazo[4,5-b]pyridin-3-yl)-2,3-dihydro-1H-inden-1-yl)pyridazine-4-carboxamide], the IC50 [1] is reported as 3750 nM, the IC50 (AKT1 WT) is reported as 19.6 nM and the IC50 (AKT2) is reported as 321 nM. For the same molecule, the IC50 (AKT1 E17K) was > 1000 nM.
`Nc1ncccc1-c1nc2ccc(-n3cccn3)nc2n1-c1ccc2c(c1)CC[C@@H]2NC(=O)c1cccnc1` [Compound 34, N-[(1S)-5-[2-(2-aminopyridin-3-yl)-5-(pyrazol-1-yl)imidazo[4,5-b]pyridin-3-yl]-2,3-dihydro-1H-inden-1-yl]pyridine-3-carboxamide] gave an IC50 [1] of 555 nM, an IC50 (AKT1 WT) of 6.27 nM and an IC50 (AKT2) of 64 nM. For the same molecule, the IC50 (AKT1 E17K) was 24.1 nM.
In the case of `Nc1ncccc1-c1nc2ccc(-n3cccn3)nc2n1-c1ccc2c(c1)CC[C@@H]2NC(=O)c1ccncc1` [Compound 35, N-[(1S)-5-[2-(2-aminopyridin-3-yl)-5-(pyrazol-1-yl)imidazo[4,5-b]pyridin-3-yl]-2,3-dihydro-1H-inden-1-yl]pyridine-4-carboxamide], the IC50 [1] is reported as 1750 nM, the IC50 (AKT1 WT) is reported as 14.2 nM and the IC50 (AKT2) is reported as 98.6 nM. The IC50 (AKT1 E17K) was 143 nM.
In the case of `Nc1ncccc1-c1nc2ccc(-n3cccn3)nc2n1-c1ccc2c(c1)CC[C@@H]2NC(=O)c1ccccn1` [Compound 36, N-[(1S)-5-[2-(2-aminopyridin-3-yl)-5-(pyrazol-1-yl)imidazo[4,5-b]pyridin-3-yl]-2,3-dihydro-1H-inden-1-yl]pyridine-2-carboxamide], the IC50 [1] is reported as 3460 nM, the IC50 (AKT1 WT) is reported as 58.6 nM and the IC50 (AKT2) is reported as 1250 nM. The IC50 (AKT1 E17K) was 164 nM.
With `Nc1ncccc1-c1nc2ccc(-n3cccn3)nc2n1-c1ccc2c(c1)CC[C@@H]2NC(=O)C1CC1` [Compound 37, N-[(1S)-5-[2-(2-aminopyridin-3-yl)-5-(pyrazol-1-yl)imidazo[4,5-b]pyridin-3-yl]-2,3-dihydro-1H-inden-1-yl]cyclopropanecarboxamide] the IC50 [1] was > 10000 nM, the IC50 (AKT1 WT) was 175 nM and the IC50 (AKT2) was 7720 nM. For the same molecule, the IC50 (AKT1 E17K) was > 1000 nM.
`COc1ccc(C(=O)N[C@H]2CCc3cc(-n4c(-c5cccnc5N)nc5ccc(-n6cccn6)nc54)ccc32)cn1` [Compound 38, N-[(1S)-5-[2-(2-aminopyridin-3-yl)-5-(pyrazol-1-yl)imidazo[4,5-b]pyridin-3-yl]-2,3-dihydro-1H-inden-1-yl]-6-methoxypyridine-3-carboxamide] gave an IC50 [1] of 585 nM, an IC50 (AKT1 WT) of 4.07 nM and an IC50 (AKT2) of 19 nM. It also gave an IC50 (AKT1 E17K) of 25.6 nM.
Molecule `Cn1cc(C(=O)N[C@H]2CCc3cc(-n4c(-c5cccnc5N)nc5ccc(-n6cccn6)nc54)ccc32)cn1` [Compound 39, (S)—N-(5-(2-(2-aminopyridin-3-yl)-5-(1H-pyrazol-1-yl)-3H-imidazo[4,5-b]pyridin-3-yl)-2,3-dihydro-1H-inden-1-yl)-1-methyl-1H-pyrazole-4-carboxamide] has an IC50 [1] of 5190 nM, an IC50 (AKT1 WT) of 49.2 nM and an IC50 (AKT2) of 754 nM. The IC50 (AKT1 E17K) was 211 nM.
Work on `Nc1ncccc1-c1nc2ccc(-n3cccn3)nc2n1-c1ccc2c(c1)CC[C@@H]2NC(=O)c1cncnc1` [Compound 40, N-[(1S)-5-[2-(2-aminopyridin-3-yl)-5-(pyrazol-1-yl)imidazo[4,5-b]pyridin-3-yl]-2,3-dihydro-1H-inden-1-yl]pyrimidine-5-carboxamide] yielded an IC50 [1] of 1770 nM, an IC50 (AKT1 WT) of 9.21 nM and an IC50 (AKT2) of 179 nM. The IC50 (AKT1 E17K) was 36 nM.
For `N#Cc1ccc(C(=O)N[C@H]2CCc3cc(-n4c(-c5cccnc5N)nc5ccc(-n6cccn6)nc54)ccc32)cc1` [Compound 41, N-[(1S)-5-[2-(2-aminopyridin-3-yl)-5-(pyrazol-1-yl)imidazo[4,5-b]pyridin-3-yl]-2,3-dihydro-1H-inden-1-yl]-4-cyanobenzamide], the IC50 [1] was 1170 nM, the IC50 (AKT1 WT) was 6.36 nM and the IC50 (AKT2) was 57.4 nM. It also gave an IC50 (AKT1 E17K) of 30.1 nM.
With `Nc1ncccc1-c1nc2ccc(-n3cccn3)nc2n1-c1ccc2c(c1)CC[C@@H]2NC(=O)c1ccc(O)cc1` [Compound 42, (S)—N-(5-(2-(2-aminopyridin-3-yl)-5-(1H-pyrazol-1-yl)-3H-imidazo[4,5-b]pyridin-3-yl)-2,3-dihydro-1H-inden-1-yl)-4-hydroxybenzamide] the IC50 [1] was 631 nM, the IC50 (AKT1 WT) was 2.84 nM and the IC50 (AKT2) was 40.7 nM. It also gave an IC50 (AKT1 E17K) of 14.4 nM.
`Nc1ncccc1-c1nc2ccc(-n3cccn3)nc2n1-c1ccc2c(c1)CC[C@@H]2NC(=O)c1ccccc1` [Compound 43, (S)—N-(5-(2-(2-aminopyridin-3-yl)-5-(1H-pyrazol-1-yl)-3H-imidazo[4,5-b]pyridin-3-yl)-2,3-dihydro-1H-inden-1-yl)benzamide] gave an IC50 [1] of 1160 nM, an IC50 (AKT1 WT) of 14.1 nM and an IC50 (AKT2) of 139 nM. It also gave an IC50 (AKT1 E17K) of 44.2 nM.
For `Nc1ncccc1-c1nc2ccc(-n3cccn3)nc2n1-c1ccc2c(c1)CC[C@@H]2NC(=O)c1ccnc(C(F)F)c1` [Compound 44, (S)—N-(5-(2-(2-aminopyridin-3-yl)-5-(1H-pyrazol-1-yl)-3H-imidazo[4,5-b]pyridin-3-yl)-2,3-dihydro-1H-inden-1-yl)-2-(difluoromethyl)isonicotinamide], the IC50 [1] was 1400 nM, the IC50 (AKT1 WT) was 9.55 nM and the IC50 (AKT2) was 141 nM. The IC50 (AKT1 E17K) was 74.1 nM.
For `Nc1ncccc1-c1nc2ccc(-n3cccn3)nc2n1-c1ccc2c(c1)CC[C@@H]2NC(=O)c1ccc(Cl)nc1` [Compound 45, (S)—N-(5-(2-(2-aminopyridin-3-yl)-5-(1H-pyrazol-1-yl)-3H-imidazo[4,5-b]pyridin-3-yl)-2,3-dihydro-1H-inden-1-yl)-6-chloronicotinamide], the IC50 [1] was 1340 nM, the IC50 (AKT1 WT) was 17.4 nM and the IC50 (AKT2) was 139 nM. For the same molecule, the IC50 (AKT1 E17K) was 170 nM.
For `Nc1ncccc1-c1nc2ccc(-n3cccn3)nc2n1-c1ccc2c(c1)CC[C@@H]2NC(=O)c1ccc(C2CC2)nc1` [Compound 46, N-[(1S)-5-[2-(2-aminopyridin-3-yl)-5-(pyrazol-1-yl)imidazo[4,5-b]pyridin-3-yl]-2,3-dihydro-1H-inden-1-yl]-6-cyclopropylpyridine-3-carboxamide], the IC50 [1] was 331 nM, the IC50 (AKT1 WT) was 6.94 nM and the IC50 (AKT2) was 17 nM. For the same molecule, the IC50 (AKT1 E17K) was 15 nM.
For `Nc1ncccc1-c1nc2ccc(-n3cccn3)nc2n1-c1ccc2c(c1)CC[C@@H]2NC(=O)Cc1cccnc1` [Compound 48, (S)—N-(5-(2-(2-aminopyridin-3-yl)-5-(1H-pyrazol-1-yl)-3H-imidazo[4,5-b]pyridin-3-yl)-2,3-dihydro-1H-inden-1-yl)-2-(pyridin-3-yl)acetamide], the IC50 [1] was > 10000 nM, the IC50 (AKT1 WT) was 155 nM and the IC50 (AKT2) was 2850 nM. The IC50 (AKT1 E17K) was > 1000 nM.
With `Nc1ncccc1-c1nc2ccc(-n3cccn3)nc2n1-c1ccc2c(c1)CC[C@@H]2NC(=O)Cc1ccncc1` [Compound 49, N-[(1S)-5-[2-(2-aminopyridin-3-yl)-5-(pyrazol-1-yl)imidazo[4,5-b]pyridin-3-yl]-2,3-dihydro-1H-inden-1-yl]-2-(pyridin-4-yl)acetamide] the IC50 [1] was > 10000 nM, the IC50 (AKT1 WT) was 199 nM and the IC50 (AKT2) was 2840 nM. The IC50 (AKT1 E17K) was > 1000 nM.
For `Nc1ncccc1-c1nc2ccc(-n3cccn3)nc2n1-c1ccc2c(c1)CC[C@@H]2NC(=O)Cc1ccccn1` [Compound 50, (S)—N-(5-(2-(2-aminopyridin-3-yl)-5-(1H-pyrazol-1-yl)-3H-imidazo[4,5-b]pyridin-3-yl)-2,3-dihydro-1H-inden-1-yl)-2-(pyridin-2-yl)acetamide], the IC50 [1] was > 10000 nM, the IC50 (AKT1 WT) was 279 nM and the IC50 (AKT2) was 3740 nM. For the same molecule, the IC50 (AKT1 E17K) was > 1000 nM.
